Experimental findings from patent US20230416256A1, “SMALL MOLECULE INHIBITORS OF NF-kB INDUCING KINASE” (Janssen Pharmaceutica NV, priority 2020, published 2023) are described below.

For test [1], the target named is recombinant human NF-kappaB-inducing kinase (NIK/MAP3K14) (Homo sapiens, UniProt Q99558). The test can be described thus: Inhibition of auto-phosphorylation of recombinant human NIK/MAP3K14 activity (AlphaScreen). Type of test: biochemical. Conditions: GST-tagged NIK/MAP3K14 1 nM, 5 μM ATP, 2 h at 25° C.; average of values obtained. The method, then:
Inhibition of Auto-Phosphorylation of Recombinant Human NF-kappaB-Inducing Kinase (NIK/MAP3K14) Activity (AlphaScreen®)
NIK/MAP3K14 auto-phosphorylation activity was measured using the AlphaScreen® (αscreen) format (Perkin Elmer). All compounds tested were dissolved in dimethyl sulfoxide (DMSO) and further dilutions were made in assay buffer. The final DMSO concentration was 0.7% (v/v) in assays. The assay buffer was 50 mM Tris pH 7.5 containing 1 mM EGTA (ethylene glycol tetraacetic acid), 1 mM DTT (dithiothreitol), 0.1 mM Na3VO4, 5 mM MgCl2, and 0.01% Tween® 20. The assays were carried out in 384 well Proxiplates (Perkin Elmer). The incubations consisted of the compound, 5 μM Adenosine-5′-triphosphate (ATP), and 1 nM NIK/MAP3K14. Incubations were initiated by the addition of GST-tagged NIK/MAP3K14 enzyme, carried out for 2 h at 25° C. and terminated by addition of stop buffer containing anti-phospho-IKK Ser176/180 antibody. Protein A Acceptor and Glutathione-Donor beads were added before reading using an EnVision Multilabel Plate Reader (Perkin Elmer). The signal obtained in the wells was normalized using high (full enzyme activity, 0.7% DMSO) and low controls (no enzyme activity, 0.7% DMSO, no ATP). IC50's were determined by fitting a sigmoidal curve to % inhibition of control versus Log10 compound concentration.
In general terms: In Alpha technology, singlet oxygen from a donor bead excites a nearby acceptor bead.

The subject of test [2] is p-IKKα levels in L363 (NIK translocated multiple myeloma) cells. The test can be described thus: Effect of compounds on p-IKKα levels in L363 cells (AlphaLISA SureFire Ultra). Type of test: cell-based, human. Conditions: Homo sapiens, 10 μM MG132, 6 h, average of values obtained, read-out: Assay 2 IC50. The protocol: Effect of Compounds on p-IKKα Levels in L363 (NIK Translocated Multiple Myeloma) Cells
All compounds tested were dissolved and serially diluted in DMSO, 1:3 dilution for 11 points in an Echo compatible plate. 100% DMSO was added to columns 12 and 24 of the plate to serve as high and low signal controls. This compound plate was used to spot 20 nL of compound or DMSO into a Greiner 384 well TC plate (781080). The final DMSO concentration was 0.3% (v/v) in cell assays. Human L363 cells (ATCC) were cultured in RPMI1640 medium supplemented with GlutaMax, non-essential amino acids, sodium pyruvate and 10% fetal bovine serum. Cells were routinely maintained at densities of […]-2×10^6 cells per mL at 37° C. in a humidified 5% CO2 atmosphere incubator. Cells were passaged twice a week splitting back to obtain the low density. The day before the assay, cells were washed twice in HBSS (Hank's Balanced Salt Solution), resuspended in Dulbecco's Modified Eagle Medium (DMEM)+0.5% IgG and protease free BSA (Jackson Immuno Research Laboratories), +/−250 ng/ml recombinant human B-cell activating factor (BAFF/BLyS/TNFSF13B) and incubated overnight at 37° C. in a humidified 5% CO2 atmosphere (bulk stimulation with or without BAFF). The next day, the cell concentration was adjusted to 1×10^7 cells/ml in DMEM+/−250 ng/ml BAFF+/10 μM MG132 and plated at […] into compound or DMSO spotted 384 well TC plates. Seeded cells were incubated at 37° C. in a humidified 5% CO2 atmosphere for 6 h. After 6 h, the plates were removed from the incubator and cell lysis was achieved by the addition of 2.5 μl 5×lysis buffer containing protease and phosphatase inhibitors, followed by shaking on a plate shaker at room temperature for 15 min. At the end of this incubation, lysed cells were sequentially treated and incubated with acceptor and donor bead mixes according to the manufacturer's protocol for a 1 plate/2-incubation suspension cell assay (AlphaLISA SureFire Ultra p-IKKa (Ser 176/180) Assay Kit (Perkin Elmer). Plates were read using an EnVision Multilabel Plate Reader (Perkin Elmer). Within an experiment, a concentration response curve for each compound was run in duplicate. The signal obtained in the test wells was normalized using high signal (BAFF stimulated cells, DMSO, MG132) and low signal (unstimulated cells, DMSO) controls. To determine the IC50, a sigmoidal curve was fitted to the plot of % inhibition versus Log10 compound concentration.

Where [3] appears, read: L-363, 6 h, 250 ng/ml BAFF stimulated.
Setting [4] is: L-363, 250 ng/ml BAFF stimulated.

pIC50: −log10 of the molar value. Read-outs that look alike come from different tables or passages of the source.

Chain of recombinant human NF-kappaB-inducing kinase (NIK/MAP3K14) (Q99558 whole entry): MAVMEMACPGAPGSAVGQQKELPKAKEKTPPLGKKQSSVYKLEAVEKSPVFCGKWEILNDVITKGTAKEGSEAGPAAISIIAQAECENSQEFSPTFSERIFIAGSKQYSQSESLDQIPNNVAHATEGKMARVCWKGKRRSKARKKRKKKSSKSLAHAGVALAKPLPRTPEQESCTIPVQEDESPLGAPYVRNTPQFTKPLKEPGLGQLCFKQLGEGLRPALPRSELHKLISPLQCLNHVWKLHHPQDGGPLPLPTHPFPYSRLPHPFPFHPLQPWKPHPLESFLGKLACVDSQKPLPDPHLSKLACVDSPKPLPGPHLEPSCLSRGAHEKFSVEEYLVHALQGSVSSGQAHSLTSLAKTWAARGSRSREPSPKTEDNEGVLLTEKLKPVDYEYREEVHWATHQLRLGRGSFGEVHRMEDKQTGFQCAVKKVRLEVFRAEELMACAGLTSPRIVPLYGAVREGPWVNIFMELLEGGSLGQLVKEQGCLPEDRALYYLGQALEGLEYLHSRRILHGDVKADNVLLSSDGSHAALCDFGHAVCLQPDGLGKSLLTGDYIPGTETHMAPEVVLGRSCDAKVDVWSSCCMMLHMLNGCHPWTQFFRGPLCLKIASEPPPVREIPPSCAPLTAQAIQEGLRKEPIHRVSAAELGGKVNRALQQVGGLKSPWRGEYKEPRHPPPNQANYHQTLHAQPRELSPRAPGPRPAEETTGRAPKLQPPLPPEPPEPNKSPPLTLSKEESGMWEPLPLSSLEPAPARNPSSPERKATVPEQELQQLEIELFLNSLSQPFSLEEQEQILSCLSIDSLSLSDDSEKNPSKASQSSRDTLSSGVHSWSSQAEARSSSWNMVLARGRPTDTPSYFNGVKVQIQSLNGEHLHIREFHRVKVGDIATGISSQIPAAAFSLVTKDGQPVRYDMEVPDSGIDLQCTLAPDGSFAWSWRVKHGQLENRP

For the compound `[2H]c1cnc2[nH]cc(-c3nc(-c4cccc([C@@]5(O)CCn6ccnc65)c4)cs3)c2n1` [Example 19, (S)-7-(3-(2-(5H-Pyrrolo[2,3-b]pyrazin-7-yl-2-d)thiazol-4-yl)phenyl)-6,7-dihydro-5H-pyrrolo[1,2-a]imidazol-7-ol], the negative logarithm of the IC50 (pIC50) in test [1] and in test [2] (setting [3]) was less than 6.30 throughout.
With `O[C@@]1(c2cccc(-c3csc(-c4c[nH]c5ncncc45)n3)c2)CCn2ccnc21` [Example 20, (R)-7-(3-(2-(7H-Pyrrolo[2,3-d]pyrimidin-5-yl)thiazol-4-yl)phenyl)-6,7-dihydro-5H-pyrrolo[1,2-a]imidazol-7-ol], the pIC50 in test [1] and in test [2] (setting [3]) was not below 7.00 throughout.
As for `O[C@]1(c2cccc(-c3csc(-c4c[nH]c5ncncc45)n3)c2)CCn2ccnc21` [Example 21, (S)-7-(3-(2-(7H-Pyrrolo[2,3-d]pyrimidin-5-yl)thiazol-4-yl)phenyl)-6,7-dihydro-5H-pyrrolo[1,2-a]imidazol-7-ol], the results for the negative-log IC50 (pIC50) in test [1] and in test [2] (setting [3]) were 6.30 to 7.00 and less than 6.30, respectively.
For `O[C@@]1(c2cccc(-c3csc(-c4c[nH]c5ncc(F)cc45)n3)c2)CCn2ccnc21` [Example 24, (R)-7-(3-(2-(5-Fluoro-1H-pyrrolo[2,3-b]pyridin-3-yl)thiazol-4-yl)phenyl)-6,7-dihydro-5H-pyrrolo[1,2-a]imidazol-7-ol], in that order: not below 7.00 and not below 7.00.
For `O[C@@]1(c2cccc(-c3csc(-c4c[nH]c5ncc(C(F)(F)F)cc45)n3)c2)CCn2ccnc21` [Example 25, (R)-7-(3-(2-(5-(Trifluoromethyl)-1H-pyrrolo[2,3-b]pyridin-3-yl)thiazol-4-yl)phenyl)-6,7-dihydro-5H-pyrrolo[1,2-a]imidazol-7-ol], in that order: not below 7.00 and 6.30 to 7.00.
In the case of `N#Cc1cnc2[nH]cc(-c3nc(-c4cccc([C@]5(O)CCn6ccnc65)c4)cs3)c2c1` [Example 26, (R)-3-(4-(3-(7-Hydroxy-6,7-dihydro-5H-pyrrolo[1,2-a]imidazol-7-yl)phenyl)thiazol-2-yl)-1H-pyrrolo[2,3-b]pyridine-5-carbonitrile], the negative logarithm of the IC50 (pIC50) in test [1] and in test [2] (setting [3]) was not below 7.00 in each case.
In the case of `O[C@@]1(c2cccc(-c3csc(-c4c[nH]c5ncc(Cl)cc45)n3)c2)CCn2ccnc21` [Example 27, (R)-7-(3-(2-(5-Chloro-1H-pyrrolo[2,3-b]pyridin-3-yl)thiazol-4-yl)phenyl)-6,7-dihydro-5H-pyrrolo[1,2-a]imidazol-7-ol], the negative-log IC50 (pIC50) in test [1] and in test [2] (setting [3]) was not below 7.00 in each case.
For the compound `CS(=O)(=O)c1cnc2[nH]cc(-c3nc(-c4cccc([C@]5(O)CCn6ccnc65)c4)cs3)c2c1` [Example 28, (R)-7-(3-(2-(5-(Methylsulfonyl)-1H-pyrrolo[2,3-b]pyridin-3-yl)thiazol-4-yl)phenyl)-6,7-dihydro-5H-pyrrolo[1,2-a]imidazol-7-ol], the negative logarithm of the IC50 (pIC50) in test [1] was not below 7.00; in test [2] (setting [3]), 6.30 to 7.00.
With `O[C@@]1(c2cccc(-c3csc(-c4c[nH]c5nccc(F)c45)n3)c2)CCn2ccnc21` [Example 29, (R)-7-(3-(2-(4-Fluoro-1H-pyrrolo[2,3-b]pyridin-3-yl)thiazol-4-yl)phenyl)-6,7-dihydro-5H-pyrrolo[1,2-a]imidazol-7-ol], the negative logarithm of the IC50 (pIC50) in test [1] and in test [2] (setting [3]) was not below 7.00 each time.
For `O[C@@]1(c2cccc(-c3coc(-c4c[nH]c5ncccc45)c3)c2)CCn2ccnc21` [Example 30, (R)-7-(3-(5-(1H-Pyrrolo[2,3-b]pyridin-3-yl)furan-3-yl)phenyl)-6,7-dihydro-5H-pyrrolo[1,2-a]imidazol-7-ol], the pIC50 is not below 7.00 in test [1] and less than 6.30 in test [2] (setting [3]).
For `O[C@@]1(c2cccc(-c3csc(-c4c[nH]c5nccnc45)n3)c2)CCn2ccnc21` [Example 41, (R)-7-(3-(2-(5H-Pyrrolo[2,3-b]pyrazin-7-yl)thiazol-4-yl)phenyl)-6,7-dihydro-5H-pyrrolo[1,2-a]imidazol-7-ol], in that order: not below 7.00 and not below 7.00.
The like results for `O[C@]1(c2cccc(-c3csc(-c4c[nH]c5nccnc45)n3)c2)CCn2ccnc21` [Example 42, (S)-7-(3-(2-(5H-Pyrrolo[2,3-b]pyrazin-7-yl)thiazol-4-yl)phenyl)-6,7-dihydro-5H-pyrrolo[1,2-a]imidazol-7-ol] were, in that order, 6.30 to 7.00 and less than 6.30.
`O=C1N(CC(F)(F)F)CC[C@]1(O)c1cccc(-c2csc(-c3c[nH]c4nccnc34)n2)c1` [Example 43, (S)-3-(3-(2-(5H-Pyrrolo[2,3-b]pyrazin-7-yl)thiazol-4-yl)phenyl)-3-hydroxy-1-(2,2,2-trifluoroethyl)pyrrolidin-2-one]: the negative-log IC50 (pIC50) in test [1] and in test [2] (setting [4]) was less than 6.30 in each case.
Consider `O=C1N(CC(F)(F)F)CC[C@@]1(O)c1cccc(-c2csc(-c3c[nH]c4nccnc34)n2)c1` [Example 44, (R)-3-(3-(2-(5H-Pyrrolo[2,3-b]pyrazin-7-yl)thiazol-4-yl)phenyl)-3-hydroxy-1-(2,2,2-trifluoroethyl)pyrrolidin-2-one], for which the pIC50 in test [1] and in test [2] (setting [4]) was less than 6.30 each time.
Regarding `CN1C[C@@](O)(c2cccc(-c3csc(-c4c[nH]c5nccnc45)n3)c2)C1=O` [Example 45, (S)-3-(3-(2-(5H-Pyrrolo[2,3-b]pyrazin-7-yl)thiazol-4-yl)phenyl)-3-hydroxy-1-methylazetidin-2-one], the negative-log IC50 (pIC50) in test [1] and in test [2] (setting [4]) was less than 6.30 each time.
Take `CN1C[C@](O)(c2cccc(-c3csc(-c4c[nH]c5nccnc45)n3)c2)C1=O` [Example 46, (R)-3-(3-(2-(5H-Pyrrolo[2,3-b]pyrazin-7-yl)thiazol-4-yl)phenyl)-3-hydroxy-1-methylazetidin-2-one]: the negative logarithm of the IC50 (pIC50) in test [1] and in test [2] (setting [4]) was less than 6.30 in each case.
Regarding `COc1cnc2[nH]cc(-c3nc(-c4cccc([C@]5(O)CCN(C)C5=O)c4)cs3)c2c1` [Example 49, (R)-3-Hydroxy-3-(3-(2-(5-methoxy-1H-pyrrolo[2,3-b]pyridin-3-yl)thiazol-4-yl)phenyl)-1-methylpyrrolidin-2-one], the results for the pIC50 in test [1] and in test [2] (setting [4]) were not below 7.00 and 6.30 to 7.00, respectively.
The like results for `CN1CC[C@@](O)(c2cccc(-c3nc(-c4c[nH]c5ncccc45)sc3CO)c2)C1=O` [Example 50, (R)-3-Hydroxy-3-(3-(5-(hydroxymethyl)-2-(1H-pyrrolo[2,3-b]pyridin-3-yl)thiazol-4-yl)phenyl)-1-methylpyrrolidin-2-one] were, in that order, not below 7.00 and less than 6.30.
The like results for `CN1CC[C@@](O)(c2cccc(-c3csc(-c4c[nH]c5ncc(C(=O)O)cc45)n3)c2)C1=O` [Example 51, (R)-3-(4-(3-(3-Hydroxy-1-methyl-2-oxopyrrolidin-3-yl)phenyl)thiazol-2-yl)-1H-pyrrolo[2,3-b]pyridine-5-carboxylic acid] were, in that order, not below 7.00 and less than 6.30.
For `CN1CC[C@@](O)(c2cccc(-c3csc(-c4c[nH]c5ncncc45)n3)c2)C1=O` [Example 53, (R)-3-(3-(2-(7H-Pyrrolo[2,3-d]pyrimidin-5-yl)thiazol-4-yl)phenyl)-3-hydroxy-1-methylpyrrolidin-2-one], in that order: not below 7.00 and less than 6.30.

For orientation: pIC50 means the negative decadic logarithm of the IC50, by convention in mol/L.
